According to PubChem BioAssay AID857 (Vanderbilt High Throughput Screening Facility, 2007):
The source made the active and inactive calls.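 The calls were made as follows: active = a full or partial dose-response curve in at least two of three replicate runs; inactive = the rest.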

Biological target: D(1B) dopamine receptor (Homo sapiens) (UniProt P21918)
Test: D5 receptor allosteric modulators, concentration-response – cell-based, HEK293, CRE-luciferase, luminescence, EC30 dopamine, selectivity assay for D1 allosteric modulator project, dose response (AID 857);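 also: HEK 293 cells expressing human D5 with a CRE-driven luciferase reporter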

Sequence of D(1B) dopamine receptor (Homo sapiens) (P21918 whole entry, looked up): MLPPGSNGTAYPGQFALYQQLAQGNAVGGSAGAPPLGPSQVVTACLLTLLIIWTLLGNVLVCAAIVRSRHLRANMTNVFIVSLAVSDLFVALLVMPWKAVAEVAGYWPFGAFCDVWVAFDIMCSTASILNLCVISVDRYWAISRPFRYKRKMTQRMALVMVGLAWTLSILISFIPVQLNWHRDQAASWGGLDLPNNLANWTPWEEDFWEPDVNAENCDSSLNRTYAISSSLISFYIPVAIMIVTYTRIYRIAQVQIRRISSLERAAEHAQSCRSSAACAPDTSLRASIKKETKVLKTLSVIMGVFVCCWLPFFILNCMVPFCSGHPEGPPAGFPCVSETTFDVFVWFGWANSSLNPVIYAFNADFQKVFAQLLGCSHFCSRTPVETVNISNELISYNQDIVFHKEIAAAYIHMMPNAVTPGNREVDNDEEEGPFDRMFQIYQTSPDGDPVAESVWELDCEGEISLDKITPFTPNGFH

Row | SMILES | outcome | EC50
1 | COCCCNc1nc2ccccc2nc1NS(=O)(=O)c1cccs1 | inactive | 
2 | O=C(Nc1cc(Cl)ccc1N1CCOCC1)c1cnccn1 | inactive | 
3 | O=C(OCC#CCSc1nnc(-c2ccc(Br)cc2)o1)c1ccco1 | inactive | 
4 | Cn1cccc1C1NC(=O)c2c(sc3c2CCC(C(C)(C)C)C3)N1 (stereo unspecified) | inactive | 
5 | Cc1ccc(C2C(C#N)=C(N)Oc3n[nH]c(-c4cccs4)c32)s1 (stereo unspecified) | inactive | 
6 | COc1ccc(Cc2nnc(NC(=O)c3c(-c4ccccc4)noc3C)s2)cc1 | inactive | 
7 | CC(C)Cc1nc(N2CCN(C(=O)C(C)C)CC2)c(C#N)c2c1CCC2 | inactive | 
8 | COc1ccc(-c2noc(CCC(N)=O)n2)cc1OC | inactive | 
9 | O=C(OCCCCN1C(=O)c2ccccc2C1=O)c1n[nH]c2ccccc12 | inactive | 
10 | Cc1cc(-c2cccs2)c2c(n1)sc1c(=O)[nH]c(=O)[nH]c12 | inactive | 
11 | Cc1cc(C)n(-c2nc3ccccc3nc2Nc2ccc(CC(=O)O)cc2)n1 |  | 1110 nM
12 | Cc1oc2ccc(OCC(N)=O)cc2c1C(=O)OC(C)C | inactive | 
13 | CCOC(=O)c1oc2ccc(S(=O)(=O)N3CCOCC3)cc2c1C | inactive | 
14 | CCN(CC)c1nc(N)c2c(N)nc3c(c2c1C#N)CC(c1ccccc1)O3 (stereo unspecified) | inactive | 
15 | c1ccc(C2=Nn3c(nnc3-c3ccncc3)SC2)cc1 | inactive | 
16 | CSc1nc2c(c(=O)n1-c1ccccc1)SCC2 | inactive | 
17 | CCC(Sc1nc(=O)cc(N)n1CCc1ccccc1)C(=O)Nc1ccccc1C#N (stereo unspecified) | inactive | 
18 | Cc1cc(C)n(CC(=O)n2c3c(c4ccccc42)CCCC3)n1 | inactive | 
19 | CC(C)Cn1c(=O)c2c(c3ccccc31)OC(C)C(=O)N2 (stereo unspecified) | inactive | 
20 | COc1ccc(CN(Cc2cccnc2)S(=O)(=O)c2ccc(-n3cnnn3)c(C)c2)cc1OC | inactive | 
21 | COc1cccc(-c2nnc(SCC(=O)Nc3cc(C)on3)o2)c1 | inactive | 
22 | CCC1(CC)C(=O)NC(=NCCc2c[nH]c3ccccc23)NC1=O | inactive | 
23 | CCCCNC(=O)c1ccc2nc(-c3ccco3)c(-c3ccco3)nc2c1 | inactive | 

Row | SMILES | outcome | EC50
24 | Cc1ccc(-n2c(SCC(=O)OC(C)C)nnc2-c2cnccn2)cc1 | inactive | 
25 | CCCC(=O)Nc1ccc(NC(=O)C2CC2)cn1 | inactive | 
26 | C=CCSc1nc2ccccc2c(=O)[nH]1 | inactive | 
27 | CCn1cc(C(=O)OCC(=O)OC2CC(C)CCC2C(C)C)c(=O)c2ccc(C)nc21 (stereo unspecified) | inactive | 
28 | CCOc1ccccc1NC(=O)CN(C)S(=O)(=O)c1cccc2nsnc12 | inactive | 
29 | CC(=O)c1cc(C#N)c(SCC(=O)OC(C)(C)C)nc1C | inactive | 
30 | CCc1ccc(C2=Nn3c(nnc3-c3cccs3)SC2)cc1 | inactive | 
31 | COc1ccc(C2CC(=O)Nc3ccccc3S2(=O)=O)cc1OC (stereo unspecified) | inactive | 
32 | COC(=O)c1cccc(N2C(=O)C(Cl)=C(N3CCOCC3)C2=O)c1 | inactive | 
33 | COC(=O)c1ccc(OCCn2cnc3ccccc3c2=O)cc1 | inactive | 
34 | Cn1c2c(c3ccccc31)CC/C2=N\O | inactive | 
35 | CSC1=NCCN1C(=O)c1ccc(Br)o1 | inactive | 
36 | O=C(C1CCC1)N1CCc2cc(S(=O)(=O)NCc3cccnc3)ccc21 | inactive | 
37 | CC(=NCc1cccnc1)C1=C(O)c2ccccc2C1=O | inactive | 
38 | CC1(C)CN=C(Nc2nc3ccccc3s2)S1 | inactive | 
39 | C=CCn1c(SCC(=O)Nc2sc(C)c(C)c2C(=O)OCC)nnc1-c1sc(N)nc1C | inactive | 
40 | CCOC(=O)Nc1sc(C(=O)N(CC)CC)c(C)c1C(=O)OCC | inactive | 
41 | O=C(CSc1nnc(COc2ccc(F)cc2)o1)N1c2ccccc2CCc2ccccc21 | inactive | 
42 | N#CC1=C(N)N(c2ccccc2)C2=C(C(=O)CCC2)C1c1cccs1 (stereo unspecified) | inactive | 
43 | NC1=NC(c2cn(-c3ccccc3)nc2-c2cccs2)n2c(nc3ccccc32)N1 (stereo unspecified) | inactive | 
44 | CCCn1c(SCC(=O)Nc2sc(C)c(C)c2C(=O)OCC)nc2c1c(=O)n(C)c(=O)n2C | inactive | 
45 | COC(=O)/C(=C1/Oc2cc3c(cc2S1)OCO3)C(F)(F)F | inactive | 
46 | COc1ccc2nc(SCC(=O)N3CCCCCC3)c(C#N)cc2c1 | inactive | 

Row | SMILES | outcome | EC50
47 | Cn1c(Cn2c(=O)sc3ccccc32)nnc1SCC(=O)N1CCOCC1 | inactive | 
48 | CCCCn1c(O)c(C(C)=NCc2ccc(F)cc2)c(=O)[nH]c1=O | inactive | 
49 | Fc1cc(Br)ccc1Nc1nc2ccccc2n2nnnc12 | inactive | 
50 | Cc1ccc(-c2cc(-c3ccc4c(c3)OCO4)c(C#N)c(N)n2)o1 | inactive | 
51 | COc1nc(C)ccc1-c1noc(-c2ccncc2)n1 | inactive | 
52 | CC(=O)Oc1c(Cl)c(N2CCOCC2)c(OC(C)=O)c2ccccc12 | inactive | 
53 | COc1ccccc1-n1c(=O)[nH]c2c(C(N)=O)nc(CC(C)C)nc21 | inactive | 
54 | CCCc1cc(C(=O)Nc2sc(C(C)=O)c(C)c2C(=O)OCC)no1 | inactive | 
55 | Cc1cc(C)nc(SCC(=O)N2CCCCC2)n1 | inactive | 
56 | CCOc1cc(C2C(C#N)=C(N)Oc3n[nH]c(-c4ccccc4)c32)ccc1O (stereo unspecified) | inactive | 
57 | c1ccc(COc2nsnc2N2CCOCC2)cc1 | inactive | 
58 | COC(=O)c1c(-c2ccccc2)csc1NC(=O)c1ccco1 | inactive | 
59 | CCOC(=O)C1CCCN(C(=O)c2cc(Cl)ccc2Cl)C1 (stereo unspecified) | inactive | 
60 | CCOc1ccc(-c2nnn(CC(=O)NCc3ccc(OC)cc3)n2)cc1OCC |  | 473 nM
61 | CS(=O)(=O)c1sc2nc(-c3cccs3)cc(-c3ccccc3)c2c1N | inactive | 
62 | CCn1c(SCC(=O)Nc2ccccc2N2CCCCC2)nc2c1c(=O)n(C)c(=O)n2C | inactive | 
63 | COc1ccc(C2=NOC(C(=O)NC3CCCCC3)C2)cc1OC (stereo unspecified) | inactive | 
64 | c1ccc(C2CC(c3ccccc3)n3ncnc3N2)cc1 (stereo unspecified) | inactive | 
65 | COc1ncnc2c1N[C@@](C)(O)c1c(F)c(F)c(F)c(F)c1S2 | inactive | 
66 | Nc1nc2n(n1)C(c1ccccc1)CC(c1ccc(F)cc1)N2 (stereo unspecified) | inactive | 
67 | CC(C)Sc1nc2c(c(=O)n1C)SC(C)C2 (stereo unspecified) | inactive | 
68 | N#CC1=C(N)n2c(s/c(=C\c3ccco3)c2=O)=C(C#N)C1c1ccco1 (stereo unspecified) | inactive | 
69 | N#CCSc1nc2c(sc(=S)n2Cc2ccco2)c(=O)n1-c1ccc(F)cc1 | inactive | 

Row | SMILES | outcome | EC50
70 | C=CCNC(=O)C1CC(c2cccc(OC)c2)=NO1 (stereo unspecified) | inactive | 
71 | COc1cccc(-c2nn3c(-c4cc(C)[nH]n4)nnc3s2)c1 | inactive | 
72 | COc1ccccc1NC(=O)CC1Nc2ccccc2NC1=O (stereo unspecified) | inactive | 
73 | CCOC(=O)c1cc2c(=O)n3ccccc3nc2n(CCCOC)c1=NC(=O)c1cccnc1 | inactive | 
74 | COc1ccc(CN2CCN(S(=O)(=O)c3ccccc3)CC2)c(OC)c1 | inactive | 
75 | CCc1nc2sc3ccccc3c(=O)c2c(=O)n1Cc1ccco1 | inactive | 
76 | CCC(C)Sc1nc2c(c(=O)n1C)SC(C)C2 (stereo unspecified) | inactive | 
77 | CC(C)C1C2=C(CC(C)(C)CC2=O)ON1c1ccccc1 (stereo unspecified) | inactive | 
78 | COc1ccc(C2CC(c3cc(OC)ccc3OC)n3nnnc3N2)cc1 (stereo unspecified) | inactive | 
79 | CCOC(=O)c1nn(-c2ccc(OC)cc2)c(=O)c2c(N)scc12 | inactive | 
80 | Nc1ncnc2c1ncn2CCOc1ccccc1 | inactive | 
81 | CCC(=O)n1nc(-c2ccco2)nc1N | inactive | 
82 | O=C(NCc1ccco1)c1cnn2c(C(F)(F)F)cc(-c3ccco3)nc12 | inactive | 
83 | Cc1cc(Br)c2c(c1)=C(c1sc(N3CCCCCC3)nc1O)C(=O)N=2 |  | 1030 nM
84 | CCCn1c(=NC(C)=O)c(C(=O)OCC)cc2c(=O)n3ccccc3nc21 | inactive | 
85 | CC(C)OC(=O)CSc1nnc(-c2cnccn2)n1-c1ccccc1 | inactive | 
86 | CCSc1nc2c(c(=O)n1CC)SC(C)C2 (stereo unspecified) | inactive | 
87 | C/C(N)=C(/C#N)C(=O)CSc1nnc(SCc2ccc(Cl)cc2)s1 | inactive | 
88 | CSc1oc(-c2ccco2)nc1S(=O)(=O)c1ccc(Br)cc1 | inactive | 
89 | O=C(c1ccco1)N1CCN(c2nc(C3CC3)nc3sc4c(c23)CCCC4)CC1 | inactive | 
90 | c1csc(-c2nn3c(Cn4nnc5ccccc54)nnc3s2)c1 | inactive | 
91 | CCCNc1nc2c(c(=O)[nH]c(=O)n2C)n1CCc1ccccc1 | inactive | 
92 | Cc1cc(NS(=O)(=O)c2ccc(NC(=O)COc3ccccc3C(C)C)cc2)no1 | inactive | 

Row | SMILES | outcome | EC50
93 | CCC(=O)Nc1nc2c(OC)ccc(OC)c2s1 | inactive | 
94 | CCOC(=O)c1c(NC(=O)c2cccs2)sc(C)c1CC | inactive | 
95 | O=S(=O)(c1cccs1)N1CCN(c2ccccn2)CC1 | inactive | 
96 | Cc1nnc(SCCn2c(N3CCCC(C)C3)nc3c2c(=O)[nH]c(=O)n3C)s1 (stereo unspecified) | inactive | 
97 | C/C(=C\C(=O)c1ccccc1)Nc1cccc(O)c1 | inactive | 
98 | Nc1nc(SCc2ccc3c(c2)OCCO3)n[nH]1 | inactive | 
99 | COc1ccc(CCN(C)C(=O)C2CCCN(Cc3ccc(OC)c(OC)c3)C2)cc1OC (stereo unspecified) | inactive | 
100 | CCn1ncc(C2=NOC(C(=O)NCc3ccccc3)C2)c1C (stereo unspecified) | inactive | 
101 | CCSC(C)CC1C/C(=N/O)c2c(CC)noc2C1 (stereo unspecified) | inactive | 
102 | Cc1ccc(Oc2ccccc2)c(NC=O)c1 | inactive | 
103 | CCCn1c(=NC(=O)c2ccco2)c(C(=O)OCC)cc2c(=O)n3ccccc3nc21 | inactive | 
104 | Clc1ccc(-n2nnnc2-c2ccccc2)cc1 | inactive | 
105 | CC(=O)Nc1nc2n(n1)C(c1ccccc1)C=C(c1ccccc1)N2 (stereo unspecified) | inactive | 
106 | Clc1ccccc1Cn1nnc2c(N3CCCC3)ncnc21 | inactive | 
107 | COc1nc(NCc2ccc(Cl)cc2)nc(OC)n1 | inactive | 
108 | CCOC(=O)N1CCC(N2Cc3cccc(C(=O)NC(C)c4ccc5c(c4)OCCO5)c3C2=O)CC1 (stereo unspecified) | inactive | 
109 | CCOC(=O)c1c(-c2cccs2)csc1NC(=O)CSc1ncn[nH]1 | inactive | 
110 | CCN1C(=O)c2cccc3c(S(=O)(=O)Nc4ccccn4)ccc1c23 | inactive | 
111 | CC(=O)c1cc(C#N)c(SCc2ccncc2)nc1C | inactive | 
